{
  "source": "patent US8153561B2",
  "about": "“Limonene-containing herbicide compositions, herbicide concentrate formulations and methods for making and using same for organic production” (Cutting Edge Formulations, Inc., priority 2005, dated 2012)",
  "system": "common lambsquarters",
  "experiment": "Field trial Zellwood, Fla.: damage rating on common lambsquarters, sprayed until runoff",
  "type": "in vivo",
  "conditions": "commercial burn down standard; improved by Day 3",
  "procedure": "FIG. 7 is a bar graph setting forth results from a field study on lambsquarters conducted in Florida in January of 2005. Ratings are based on 0 to 10 (no damage to dead). Statistical analysis is by Duncan's MRT (P<0.05).\nA field trial was conducted in Zellwood, Fla. The same formulation described in Example 1 was used in the Florida trial. All limonene treatments were made at a 3:1 ratio by volume, represented as water:herbicide formulation ratio, to provide a herbicide composition of 22% limonene (w/w %). Four reps per treatment were used; all treatments were randomly distributed within a rep. The weed species was common lambsquarters (1 to 2 feet in height). Treatments applied were pH 3, 7, 8 and 9 with and without a silicone surfactant, Silwet; each treatment was sprayed until runoff. The commercial burn down standard, Gramoxone (Paraquat) was included. Readings were taken at 1 and 2 hours, and 1, 3 and 7 days. […] Effects with Gramoxone (Paraquat) were first observed on day 1 and improved by Day 3. After the first 2 hours limonene effects were stabilized.",
  "data": [
    {"smiles": "C[n+]1ccc(-c2cc[n+](C)cc2)cc1", "note": "[Gramoxone, Paraquat]", "values": [
      {"measurement": "effects first observed", "result": 1, "unit": "days"}
    ]}
  ]
}
